{
  "source": "patent US8076366B2",
  "about": "“Forms of bendamustine free base” (Cephalon, Inc., priority 2009, dated 2011)",
  "assay": "Variable temperature X-ray powder diffraction (VT-XRPD) of Form 3: solid-state thermal stability",
  "assay_type": "physicochemical",
  "procedure": "Variable temperature studies were performed with an Anton Paar TTK450 temperature chamber under computer control through an Anton Paar TCU100 temperature control unit. Typically, the measurements were done with a nitrogen flow through the camera. Two measurement schemes were used, restricted and continuous. In the restricted mode, measurements were made only after the TK450 chamber reached the requested temperature. In the continuous mode, the sample was heated at 10° C./minute and fast scans were measured as the temperature changed. After the pre-selected temperature was reached, the sample was cooled at 35° C./minute. To monitor for changes during the cooling, fast scans were again measured. At 25° C., a slow scan was measured. The temperatures chosen were based on DSC results. For the diffractometer set-up a 10 mm beam mask, 0.04 radian Soller slits and fixed (¼°) divergence and anti-scatter (⅛°) slits were inserted on the incident beam side. A fixed 0.10 mm receiving slit, 0.04 radian Soller slits and a 0.02 mm Nickel filter were inserted on the diffracted beam side. […] With the nitrogen gas supply turned off, the camera returned to ambient conditions. The humidity in the ambient state varies with the humidity in the laboratory, typically 30 to 40%, and with the temperature in the camera. As the temperature is raised, the relative humidity will drop. […]",
  "data": [
    {"compound": "Cn1c(CCCC(=O)O)nc2cc(N(CCCl)CCCl)ccc21", "note": "[Form 3, 4-{5-[Bis(2-chloroethyl)amino]-1-methyl-2-benzimidazolyl}butyric acid]", "values": [
      {"measurement": "temperature after which the sample converts to amorphous material", "value": "> 133", "unit": "°C"},
      {"measurement": "solid-solid transformations on heating", "setting": "temperature range of 25° C. to 50° C.", "value": "No significant, solid-solid transformations"}
    ]}
  ]
}
